What was measured:
locomotor activity = settings: M4 knockout mice, but not the other four mAChR subtypes (M1-3,5); cited from earlier work
[1] = system: haloperidol-induced catalepsy; experiment: haloperidol-induced catalepsy, a model of parkinsonian motor disability; type: in vivo, mice
Text: Furthermore, haloperidol-induced catalepsy, a model of parkinsonian motor disability, is reduced in M4 knockout mice as compared to wild-type controls. […] The reversal by scopolamine was uncommonly robust and more pronounced than we observe with agents targeting a number of other targets being evaluated for potential antiparkinsonian effects, including metabotropic glutamate (mGlu) receptors mGlu4 or mGlu5, A2A adenosine receptors, and NMDA receptors. […] Taken together with the extensive studies of M4 modulation of basal ganglia and motor function, these studies provide compelling evidence that M4 is the dominant mAChR subtype involved in the antiparkinsonian effects of non-selective mAChR antagonists and provide support for discovery and development of selective M4 antagonists for treatment of neurodegenerative disease such as PD, dystonia, tardive dyskinesia and other movement disorders.

CN1[C@@H]2C[C@@H](OC(=O)[C@H](CO)c3ccccc3)C[C@H]1[C@@H]1O[C@@H]12 [scopolamine]
locomotor-activating effects (locomotor activity): dramatically reduced | reduction of catalepsy induced by haloperidol ([1]; M4 KO mice): ineffective | reversal of catalepsy induced by haloperidol ([1]; WT mice): completely reversed
